From the supplement of paper PMC11061612

Key:
Assay in all cases: Bliss excess, mean over the matrix (fraction); higher = more synergy
[1] = system: T84 (Colorectal Carcinoma)
In short: (§1)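 Cell lines grown in DMEM/F12 or RPMI with 10% FBS were plated in 1536-well plates and held 24 hours at 37°C, 5% CO2 before 72 hours of exposure to two-drug dose matrices, with DMSO typically at 0.2%. CellTiter-Glo 2.0 luminescence gave viability, which was converted to inhibition. Vehicle wells were set to 0 and blank wells to 1. Combination Emax is the second-highest inhibition in the matrix, and Bliss excess is the observed combination effect minus the expected EA + EB − EA·EB, where EA and EB are the single-agent effects.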

[2] = system: NCI-H1876 (Small Cell Lung Carcinoma)
In short: as §1

WM35 (Melanoma) = system: WM35 (Melanoma)
In short: as §1

[3] = system: OVCAR-3 (Ovarian Carcinoma)
In short: as §1

[4] = system: KP-4 (Pancreatic Carcinoma)
In short: as §1

[5] = system: MDA-MB-415 (Breast Carcinoma)
In short: as §1

[6] = system: DBTRG-05MG (Glioblastoma)
In short: as §1

[7] = system: C-33-A (Cervical Carcinoma)
In short: as §1

[8] = system: SNU-423 (Hepatocellular Carcinoma)
In short: as §1

[9] = system: HT-1080 (Other Solid Carcinomas)
In short: as §1

[10] = system: NCI-H1341 (Small Cell Lung Carcinoma)
In short: as §1

[11] = system: NCI-H3118 (Head and Neck Carcinoma)
In short: as §1

KALS-1 (Glioblastoma) = system: KALS-1 (Glioblastoma)
In short: as §1

[12] = system: BHT-101 (Thyroid Gland Carcinoma)
In short: as §1

[13] = system: IA-LM (Non-Small Cell Lung Carcinoma)
In short: as §1

[14] = system: MONO-MAC-6 (Acute Myeloid Leukemia)
In short: as §1

[15] = system: PA-TU-8988T (Pancreatic Carcinoma)
In short: as §1

[16] = system: SAT (Head and Neck Carcinoma)
In short: as §1

[17] = system: PL4 (Pancreatic Carcinoma)
In short: as §1

[18] = system: SK-CO-1 (Colorectal Carcinoma)
In short: as §1

Compound | Bliss excess [1] | Bliss excess [2] | Bliss excess (WM35 (Melanoma)) | Bliss excess [3] | Bliss excess [4] | Bliss excess [5] | Bliss excess [6] | Bliss excess [7] | Bliss excess [8] | Bliss excess [9] | Bliss excess [10] | Bliss excess [11] | Bliss excess (KALS-1 (Glioblastoma)) | Bliss excess [12] | Bliss excess [13] | Bliss excess [14] | Bliss excess [15] | Bliss excess [16] | Bliss excess [17] | Bliss excess [18]
CN(CCO)CC[C@H](CSc1ccccc1)Nc1ccc(S(=O)(=O)NC(=O)c2ccc(N3CCC([C@@H](O)c4ccccc4-c4ccc(Cl)cc4)CC3)cc2)cc1S(=O)(=O)C(F)(F)F [AZD4320] + Cc1cc2ncnn2cc1Nc1ncc2c(n1)n(C1CCOCC1)c(=O)n2C [AZD7648] (first compound max 1 µM, 7x7, partner max 10 µM) | -0.0314 | 0.0162 | -0.0122 | -0.0521 | -0.0578 | -0.0243 | -0.0015 | -0.0164 | -0.0311 | -0.0757 | 0.0254 | -0.0392 | -0.0096 | -0.0361 | -0.0482 | 0.0106 | -0.043 | -0.0621 | -0.0631 | -0.0224
CN(CCO)CC[C@H](CSc1ccccc1)Nc1ccc(S(=O)(=O)NC(=O)c2ccc(N3CCC([C@@H](O)c4ccccc4-c4ccc(Cl)cc4)CC3)cc2)cc1S(=O)(=O)C(F)(F)F [AZD4320] + Cn1cnc2c(F)c(Nc3ccc(Br)cc3Cl)c(C(=O)NOCCO)cc21 [Selumetinib] (first compound max 1 µM, 7x7, partner max 3 µM) | 0.0142 | 0.0752 | 0.154 | 0.0276 | -0.0025 | -0.0181 | 0.0074 | 0.0597 | -0.0228 | -0.0965 | 0.0615 | 0.0807 | 0.0924 | 0.0147 | 0.0652 | 0.0401 | 0.0561 | 0.0523 | 0.0473 | 0.0154
COc1nnc2ccc(N3CCC(c4ccc(OCCN5CCN(C)C(=O)[C@H]5C)cc4)CC3)nn12 [AZD5153] + C=CCn1c(=O)c2cnc(Nc3ccc(N4CCN(C)CC4)cc3)nc2n1-c1cccc(C(C)(C)O)n1 [AZD1775] (first compound max 1 µM, partner max 1 µM) | -0.0643 | 0.0224 | -0.0242 | 0.0107 | -0.0859 | -0.0878 | -0.0053 | -0.0546 | -0.0459 | -0.0362 | -0.0121 | -0.0981 | -0.12 | -0.0885 | -0.0554 | -0.0323 | -0.0738 | -0.0305 | 0.0251 | -0.0741
COc1nnc2ccc(N3CCC(c4ccc(OCCN5CCN(C)C(=O)[C@H]5C)cc4)CC3)nn12 [AZD5153] + CC1(C)CCC(CN2CCN(c3ccc(C(=O)NS(=O)(=O)c4ccc(NCC5CCOCC5)c([N+](=O)[O-])c4)c(Oc4cnc5[nH]ccc5c4)c3)CC2)=C(c2ccc(Cl)cc2)C1 [Venetoclax] (first compound max 1 µM, 7x7, partner max 1 µM) | -0.0874 | 0.0029 | -0.0097 | -0.0157 | -0.0465 | -0.0155 | -0.0832 | -0.0107 | -0.0223 | -0.0216 | -0.03 | -0.0517 | -0.0418 | -0.0616 | -0.0639 | 0.0179 | -0.0254 | -0.0525 | 0.0064 | -0.0312
COc1nnc2ccc(N3CCC(c4ccc(OCCN5CCN(C)C(=O)[C@H]5C)cc4)CC3)nn12 [AZD5153] + CCN(CCO)CCCOc1ccc2c(Nc3cc(CC(=O)Nc4cccc(F)c4)[nH]n3)ncnc2c1 [AZD2811] (first compound max 1 µM, 7x7, partner max 1 µM) | -0.0536 | 0.0183 | -0.016 | -0.0394 | -0.0849 | -0.0346 | -0.0036 | 0.0198 | -0.0417 | 0.0036 | 0.0041 | -0.0437 | -0.0911 | -0.0257 | -0.103 | 0.0519 | 0.0086 | -0.0368 | -0.0333 | -0.0746
COc1nnc2ccc(N3CCC(c4ccc(OCCN5CCN(C)C(=O)[C@H]5C)cc4)CC3)nn12 [AZD5153] + C[C@@H]1COCCN1C2=NC(=NC(=C2)C3(CC3)[S@](=N)(=O)C)C4=C5C=CNC5=NC=C4 [AZD6738] (first compound max 1 µM, 7x7, partner max 10 µM) | -0.131 | 0.089 | 0.0621 | 0.0931 | -0.0217 | -0.0009 | 0.0213 | 0.0515 | -0.0023 | -0.0255 | 0.0243 | -0.0879 | -0.0314 | -0.0166 | -0.0353 | -0.031 | 0.0531 | 0.031 | -0.0425 | -0.0179
COc1nnc2ccc(N3CCC(c4ccc(OCCN5CCN(C)C(=O)[C@H]5C)cc4)CC3)nn12 [AZD5153] + Cc1c2c(nn1C)CSCc1cc(n(C)n1)CSc1cc(c3ccccc3c1)OCCCc1c(C(=O)O)n(C)c3c-2c(Cl)ccc13 [AZD5991] (first compound max 1 µM, 7x7, partner max 1 µM) | -0.0524 | 0.157 | 0.0634 | 0.0003 | -0.0231 | 0.031 | -0.0296 | 0.0124 | -0.0227 | -0.0668 | 0.0366 | -0.0602 | 0.0141 | 0.0167 | -0.0797 | 0.0451 | 0.005 | 0.0109 | -0.0242 | -0.0377
